Patent publication US10106627B2, “Process for the preparation of polymeric biosurfactants” (priority 2014, dated 2018)

Legend:
erythrocytes = test: Erythrocyte hemolysis assay (H2O2); format: cell-based; conditions: human erythrocytes, H2O2, 37° C., 30 min
Procedure: The antioxidant activity of Microsan from Microbacterium sp. strain BS-2 and Brevisan from Brevibacillus sp. strain BS-207 in cell free system was measured by its inhibitory activity on the generation of DPPH free radicals, superoxide anions (O^2−), lipid peroxidation and erythrocyte hemolysis. The DPPH free radical scavenging assay was performed using 2,2-diphenyl-1-picrylhydrazyl (DPPH) free radical scavenging method [Ara. N. and Hasan, N. (2009) Res. J. Med. Medical Sci. 4, 107-110]. Different concentrations of Microsan and Brevisan were mixed individually with 150 μl of 160 μM methanolic solution of DPPH and incubated at 35° C. for 30 min in dark. The effective concentration (EC50) was calculated by measuring the absorbance of the samples at 517 nm. The superoxide anion scavenging was measured using phenazine methosulfate-nicotinamide adenine dinucleotide (PMS/NADH) method as previously described [Liu, F., Ooi, V. E. and Chang, S. T. (1997) Life Sci. 60, 763-771]. The lipid peroxidation assay was performed using the previously described method [Zhang, Q., Yu, P., Li, Z., Zhang, H., Xu, Z. and Li, P. (2003) J. Appl. Phycol. 15, 305-310] which is based on measuring the lipid peroxide decomposed product malondialdehyde (MDA). […] Samples were incubated at 37° C. for 30 min and the absorbance was measured at 540 nm. […]

[1] = Surface tension, Wilhelmy plate method; format: physicochemical; conditions: from 72
Procedure: (§1) The bacterial strains producing biosurfactants were isolated from the petroleum-contaminated soil sample collected from Mupkal, Nizamabad, Andhra Pradesh, India (latitude 18.90° N and longitude 78.36° E). The soil sample was enriched by placing 1.0 g of soil sample in 100 ml of mineral salts medium supplemented with N-hexadecane (1%, v/v) as a sole carbon source for three weeks. The enriched sample was serially diluted and then plated on the mineral salts agar plates overlaid with N-hexadecane which acted as a sole carbon source. The colonies that appeared on the plates upon incubation at 37° C. for 72 h were purified for 2-3 times on nutrient agar plates. The isolated pure microorganisms were cultured in liquid mineral salts medium at 37° C. for 72 h. The cells were separated by centrifugation and the cell-free supernatant was measured for the reduction in surface tension values by Wilhelmy plate method using a Du-Nouy K100MK2 Processor Tensiometer (Krüss, Hamburg, Germany). The concentration series was generated automatically with a computer-controlled Dosimat (Metrohm AG, Switzerland). […] The critical micelle concentration (CMC) was measured by plotting the concentration of surfactant as a function of surface tension, and the CMC was taken as the point where the slope of the curve abruptly changed. […]

[2] = test system: nitric oxide (NO) in RAW 264.7 macrophages; test: LPS-stimulated nitric oxide (Griess reaction) in RAW 264.7 macrophages; format: cell-based, mouse; conditions: 20 μg ml^−1; LPS 100 ng ml^−1 24 h; LPS alone 66.87%
Procedure: After 24 h, 100 μl of culture supernatant was collected and mixed with 100 μl of Griess reagent in a 96-well plate and incubated for 15 min at room temperature. The optical density was spectroscopically measured at 540 nm using TRIAD multimode reader (Dynex Technologies, Inc., Chantilly, Va.). The experiments were run in triplicates and reported as the percentage of NO produced.

[3] = Critical micelle concentration; format: physicochemical
Procedure: as §1

[4] = test system: C3 complement component in RAW 264.7 macrophages; test: LPS-induced C3 complement component production ELISA in RAW 264.7 macrophages; format: cell-based, mouse; conditions: 1, 10, 20 and 50 μg/ml; LPS 100 ng ml^−1 24 h
Procedure: The effect of Brevisan, Microsan and M-EPS-Au-NP on C3 complement component was measured using ELISA kits (Antibodies, Atlanta, USA). RAW 264.7 cells were treated with Brevisan, Microsan and M-EPS-Au-NP at 1, 10, 20 and 50 μg/ml, respectively, and then stimulated with 100 ng ml^−1 of LPS. After incubating for 24 h, 50 μl of supernatant was collected and added to each well in an antibody coated 96-well plate. After I h, the wells were washed with PBS and incubated with 100 μl of horse radish peroxidase (HRP)-conjugate for 1 h at 37° C. and then incubated with 50 μl of O-phenylenediamine (0.2% w/v in 0.017 M citrate phosphate buffer, pH 6) and 50 μl of 0.015% hydrogen peroxide for 15 min and the reaction was stopped by adding 50 μl of 12.5% sulphuric acid and the optical density was measured at 450 nm using Biotek EIA Reader (Biotek Instruments, Inc., VT, USA). The results shown are the average of three independent experiments. Further, the hemolytic activity of the secreted C3 was measured as described earlier [Gasque, P., Julen, N., Ischenko, A. M., Picot, C., Mauger, C., Chauzy, C., Ripoche, J. and Fontaine, M. (1992) J. Immunol. 149, 1381-1389]. […] Then 1.5 ml of PBS was added, centrifuged at 10,000 rpm for 5 min and the hemoglobin released present in the supernatant was quantified by measuring the absorbance at 415 nm. […]

Question: For “β-D-glucuronyl-(1-2)-D-mannosyl-(1-4)-D-glucose [Microsan]”, which “EC50 erythrocyte hemolysis inhibition” value (erythrocytes) is on record?
Answer: The value was 139.28 µg/mL.

Question: And the “surface tension of water reduced to” value [1]?
Answer: Its value is 31.2 mN m^−1.

Question: What about the “LPS-stimulated NO levels after treatment” value [2] of the same substance?
Answer: The value was 20.05%.

Question: And the “critical micelle concentration (CMC)” value [3]?
Answer: The value was 75 mg/L.

Question: And the “inhibition of C3 complement component production” value [4]?
Answer: The value was “did not inhibit”.
